# Source: ChEMBL document CHEMBL3885861, “Open TG-GATES”
# Species on record: Rattus norvegicus
# Experiment: Open TG-GATES - Regimen: Daily Repeat
# Type: toxicity, organism-based, Sprague-Dawley
# Design: regimen Daily Repeat, gender Male, age 6 weeks
# Settings: in vivo, po, route gavage; for APTT / Bas / Eos / Fbg / Ht / Lym / MCHC / MCV / Mono / PT / Plat / RBC / Ret / WBC: tissue Blood; for KIDNEY_L / KIDNEY_R / KIDNEY_TOTAL: tissue Kidney; for LIVER: tissue Liver; for ALP / ALT / AST / BUN / CRE / Ca / Cl / DBIL / IP / LDH / Na / PL / RALB / TBIL / TC / TG / TP / gamma-GTP: tissue Plasma
# [1] = 0 mg/kg, 72 h, dose level Control, time 3 day
# [2] = 0 mg/kg, […], dose level Control, time 7 day
# [3] = 0 mg/kg, […], dose level Control, time 14 day
# [4] = 0 mg/kg, […], dose level Control, time 28 day
# [5] = 40 mg/kg, 72 h, dose level Low, time 3 day
# [6] = 40 mg/kg, […], dose level Low, time 7 day
# [7] = 40 mg/kg, […], dose level Low, time 14 day
# [8] = 40 mg/kg, […], dose level Low, time 28 day
structure (smiles),measurement,setting,value
CC(C)N(CCC(C(N)=O)(c1ccccc1)c1ccccn1)C(C)C (stereo not given) [DISOPYRAMIDE],TERMINAL_BW,[1],230.2 g
same,APTT,[1],22 s
same,Bas,[1],0%
same,Eos,[1],1.2%
same,Fbg,[1],325.2 mg/dL
same,Ht,[1],39.9%
same,Lym,[1],76.8%
same,MCHC,[1],32%
same,MCV,[1],64.5 fL
same,Mono,[1],2.8%
same,PT,[1],15.8 s
same,Plat,[1],130.4 x10_4/uL
same,RBC,[1],617.8 x10_4/ul
same,Ret,[1],7.1%
same,WBC,[1],99.7 x10_2/uL
same,KIDNEY_L,[1],1 g
same,KIDNEY_R,[1],1 g
same,KIDNEY_TOTAL,[1],2 g
same,LIVER,[1],11 g
same,ALP,[1],1742 IU/L
same,ALT,[1],49.6 IU/L
same,AST,[1],80.8 IU/L
same,BUN,[1],17.6 mg/dL
same,CRE,[1],0.2 mg/dL
same,Ca,[1],10.6 mg/dL
same,Cl,[1],107.2 meq/L
same,DBIL,[1],0 mg/dL
same,IP,[1],7.5 mg/dL
same,LDH,[1],201.8 IU/L
same,Na,[1],143 meq/L
same,PL,[1],140.4 mg/dL
same,RALB,[1],2.9 g/dL
same,TBIL,[1],0 mg/dL
same,TC,[1],71.6 mg/dL
same,TG,[1],88 mg/dL
same,TP,[1],5.5 g/dL
same,gamma-GTP,[1],2 IU/L
same,TERMINAL_BW,[2],265.2 g
same,TERMINAL_BW,[3],303.7 g
same,TERMINAL_BW,[4],406.5 g
same,APTT,[2],21.6 s
same,Bas,[2],0%
same,Eos,[2],0.8%
same,Fbg,[2],324 mg/dL
same,Ht,[2],39.9%
same,Lym,[2],78%
same,MCHC,[2],32.1%
same,MCV,[2],62.4 fL
same,Mono,[2],2%
same,PT,[2],16.2 s
same,Plat,[2],116.2 x10_4/uL
same,RBC,[2],639.4 x10_4/ul
same,Ret,[2],6.7%
same,WBC,[2],90.3 x10_2/uL
same,APTT,[3],25.1 s
same,Bas,[3],0%
same,Eos,[3],1%
same,Fbg,[3],319.4 mg/dL
same,Ht,[3],41.9%
same,Lym,[3],80.8%
same,MCHC,[3],33%
same,MCV,[3],58.7 fL
same,Mono,[3],2%
same,PT,[3],15.7 s
same,Plat,[3],113.2 x10_4/uL
same,RBC,[3],715 x10_4/ul
same,Ret,[3],4.4%
same,WBC,[3],124.4 x10_2/uL
same,APTT,[4],24.9 s
same,Bas,[4],0%
same,Eos,[4],1%
same,Fbg,[4],317 mg/dL
same,Ht,[4],42.9%
same,Lym,[4],80%
same,MCHC,[4],33.5%
same,MCV,[4],56.9 fL
same,Mono,[4],2.2%
same,PT,[4],15.7 s
same,Plat,[4],100.4 x10_4/uL
same,RBC,[4],755.2 x10_4/ul
same,Ret,[4],3.4%
same,WBC,[4],136.1 x10_2/uL
same,KIDNEY_L,[2],1.1 g
same,KIDNEY_R,[2],1.1 g
same,KIDNEY_TOTAL,[2],2.3 g
same,KIDNEY_L,[3],1.2 g
same,KIDNEY_R,[3],1.3 g
same,KIDNEY_TOTAL,[3],2.5 g
same,KIDNEY_L,[4],1.6 g
same,KIDNEY_R,[4],1.6 g
same,KIDNEY_TOTAL,[4],3.1 g
same,LIVER,[2],13.2 g
same,LIVER,[3],13.6 g
same,LIVER,[4],17.8 g
same,ALP,[2],1665 IU/L
same,ALT,[2],44 IU/L
same,AST,[2],70.8 IU/L
same,BUN,[2],19 mg/dL
same,CRE,[2],0.2 mg/dL
same,Ca,[2],10.6 mg/dL
same,Cl,[2],106.6 meq/L
same,DBIL,[2],0 mg/dL
same,IP,[2],7.8 mg/dL
same,LDH,[2],199.2 IU/L
same,Na,[2],143.2 meq/L
same,PL,[2],158.6 mg/dL
same,RALB,[2],3 g/dL
same,TBIL,[2],0 mg/dL
same,TC,[2],81.4 mg/dL
same,TG,[2],133.6 mg/dL
same,TP,[2],5.6 g/dL
same,gamma-GTP,[2],2 IU/L
same,ALT,[3],41.8 IU/L
same,AST,[3],68 IU/L
same,BUN,[3],18.6 mg/dL
same,CRE,[3],0.1 mg/dL
same,Ca,[3],10.3 mg/dL
same,Cl,[3],104.8 meq/L
same,DBIL,[3],0 mg/dL
same,IP,[3],7 mg/dL
same,LDH,[3],142.2 IU/L
same,Na,[3],142.2 meq/L
same,PL,[3],146.4 mg/dL
same,RALB,[3],3 g/dL
same,TBIL,[3],0.004 mg/dL
same,TC,[3],71.2 mg/dL
same,TG,[3],138.2 mg/dL
same,TP,[3],5.7 g/dL
same,gamma-GTP,[3],2.2 IU/L
same,ALP,[4],1292.8 IU/L
same,ALT,[4],36.8 IU/L
same,AST,[4],62.8 IU/L
same,BUN,[4],17.4 mg/dL
same,CRE,[4],0.2 mg/dL
same,Ca,[4],10.4 mg/dL
same,Cl,[4],105 meq/L
same,DBIL,[4],0 mg/dL
same,IP,[4],6.8 mg/dL
same,LDH,[4],199.4 IU/L
same,Na,[4],140.6 meq/L
same,PL,[4],145.4 mg/dL
same,RALB,[4],3.1 g/dL
same,TBIL,[4],0.006 mg/dL
same,TC,[4],70.6 mg/dL
same,TG,[4],181.6 mg/dL
same,TP,[4],6.1 g/dL
same,gamma-GTP,[4],2.2 IU/L
same,TERMINAL_BW,[5],231.5 g
same,APTT,[5],20.9 s
same,Bas,[5],0%
same,Eos,[5],1.2%
same,Fbg,[5],313.2 mg/dL
same,Ht,[5],39.2%
same,Lym,[5],81.8%
same,MCHC,[5],32.1%
same,MCV,[5],63.9 fL
same,Mono,[5],2.2%
same,PT,[5],16 s
same,Plat,[5],113.5 x10_4/uL
same,RBC,[5],614.4 x10_4/ul
same,Ret,[5],6.2%
same,WBC,[5],87.7 x10_2/uL
same,KIDNEY_L,[5],1.1 g
same,KIDNEY_R,[5],1.1 g
same,KIDNEY_TOTAL,[5],2.1 g
same,LIVER,[5],10.8 g
same,ALP,[5],1494 IU/L
same,ALT,[5],45.4 IU/L
same,AST,[5],75.4 IU/L
same,BUN,[5],15.4 mg/dL
same,CRE,[5],0.2 mg/dL
same,Ca,[5],10.8 mg/dL
same,Cl,[5],107.8 meq/L
same,DBIL,[5],0 mg/dL
same,IP,[5],7.6 mg/dL
same,LDH,[5],188.2 IU/L
same,PL,[5],146.8 mg/dL
same,RALB,[5],3 g/dL
same,TBIL,[5],0 mg/dL
same,TC,[5],73.4 mg/dL
same,TG,[5],122.4 mg/dL
same,TP,[5],5.4 g/dL
same,gamma-GTP,[5],1.8 IU/L
same,TERMINAL_BW,[6],254.3 g
same,TERMINAL_BW,[7],308.2 g
same,TERMINAL_BW,[8],375 g
same,APTT,[6],20.5 s
same,Bas,[6],0%
same,Eos,[6],0.8%
same,Fbg,[6],323.8 mg/dL
same,Ht,[6],40%
same,Lym,[6],83%
same,MCHC,[6],32.7%
same,MCV,[6],61.2 fL
same,Mono,[6],1.8%
same,PT,[6],15.9 s
same,Plat,[6],122.2 x10_4/uL
same,RBC,[6],654 x10_4/ul
same,Ret,[6],6.2%
same,WBC,[6],120.7 x10_2/uL
same,APTT,[7],23.9 s
same,Bas,[7],0%
same,Eos,[7],1%
same,Fbg,[7],310.6 mg/dL
same,Ht,[7],41.1%
same,Lym,[7],80.6%
same,MCHC,[7],32.8%
same,MCV,[7],59.7 fL
same,Mono,[7],2.2%
same,PT,[7],15.3 s
same,Plat,[7],109 x10_4/uL
same,RBC,[7],688.2 x10_4/ul
same,Ret,[7],4.9%
same,WBC,[7],113.4 x10_2/uL
same,APTT,[8],25.5 s
same,Bas,[8],0%
same,Eos,[8],1.2%
same,Fbg,[8],320.2 mg/dL
same,Ht,[8],43.3%
same,Lym,[8],81%
same,MCHC,[8],33.8%
same,MCV,[8],55.7 fL
same,Mono,[8],2.2%
same,PT,[8],15.4 s
same,Plat,[8],110.5 x10_4/uL
same,RBC,[8],776.4 x10_4/ul
same,Ret,[8],2.6%
same,WBC,[8],121.1 x10_2/uL
same,KIDNEY_L,[6],1 g
same,KIDNEY_R,[6],1.1 g
same,KIDNEY_TOTAL,[6],2.1 g
same,KIDNEY_L,[7],1.3 g
same,KIDNEY_R,[7],1.3 g
same,KIDNEY_TOTAL,[7],2.6 g
same,KIDNEY_L,[8],1.4 g
same,KIDNEY_R,[8],1.4 g
same,KIDNEY_TOTAL,[8],2.7 g
same,LIVER,[6],11.6 g
same,LIVER,[7],14.7 g
same,LIVER,[8],16 g
same,ALP,[6],1528.8 IU/L
same,ALT,[6],48.2 IU/L
same,AST,[6],72.2 IU/L
same,BUN,[6],16.4 mg/dL
same,CRE,[6],0.1 mg/dL
same,Ca,[6],10.4 mg/dL
same,Cl,[6],106.8 meq/L
same,DBIL,[6],0.002 mg/dL
same,IP,[6],7.7 mg/dL
same,LDH,[6],149.8 IU/L
same,Na,[6],143.2 meq/L
same,PL,[6],141.6 mg/dL
same,RALB,[6],2.9 g/dL
same,TBIL,[6],0 mg/dL
same,TC,[6],73.4 mg/dL
same,TG,[6],115.6 mg/dL
same,TP,[6],5.4 g/dL
same,gamma-GTP,[6],1.8 IU/L
same,ALP,[7],1255.8 IU/L
same,ALT,[7],47.8 IU/L
same,AST,[7],75 IU/L
same,BUN,[7],16.8 mg/dL
same,CRE,[7],0.2 mg/dL
same,Ca,[7],10.4 mg/dL
same,Cl,[7],104.8 meq/L
same,DBIL,[7],0 mg/dL
same,IP,[7],7.6 mg/dL
same,LDH,[7],225 IU/L
same,Na,[7],141.6 meq/L
same,PL,[7],147 mg/dL
same,RALB,[7],3.1 g/dL
same,TBIL,[7],0.01 mg/dL
same,TC,[7],73.6 mg/dL
same,TG,[7],131 mg/dL
same,TP,[7],5.7 g/dL
same,gamma-GTP,[7],2.2 IU/L
same,ALP,[8],1094 IU/L
same,ALT,[8],40 IU/L
same,AST,[8],64.6 IU/L
same,BUN,[8],17.4 mg/dL
same,CRE,[8],0.2 mg/dL
same,Ca,[8],10.5 mg/dL
same,Cl,[8],106.4 meq/L
same,DBIL,[8],0 mg/dL
same,IP,[8],6.3 mg/dL
same,LDH,[8],158.6 IU/L
same,Na,[8],140.6 meq/L
same,PL,[8],158 mg/dL
same,RALB,[8],3.1 g/dL
same,TBIL,[8],0.004 mg/dL
same,TC,[8],70 mg/dL
same,TG,[8],205 mg/dL
same,TP,[8],6.1 g/dL
same,gamma-GTP,[8],2.2 IU/L
same,TERMINAL_BW,"120 mg/kg, 72 h, dose level Middle, time 3 day",227.1 g
